What was measured:
brain = conditions: cited from earlier work
[1] = tested on: brain of rat after focal cerebral ischemia
Source text: Thallium is a potassium tracer and can detect changes in potassium metabolism, as occur, e.g., in brain infarcts, brain tumors, or degenerative diseases.
Shown are frontal sections in the plane of the anterior commissure (A, D) and images of the same sections (B, E).
The thallium is taken up essentially by the sodium-potassium pump and transport systems regulated by it and is thus energy-dependent. […] Scale bar in A: 500 μm, in B: 50 μm, in C: 25 μm, in D: 10 μm, in E: 25 μm and in F: 100 μm.

experimental animals = conditions: high thallium acetate doses needed for the method; animals sacrificed 15 minutes after administration; cited from earlier work

Compound	cerebral uptake (brain)	decomposition in the brain (brain)	staining intensity (thallium) in infarct core ([1]; 15 minutes after focal cerebral ischemia (hyperacute stage), infarct core)	staining intensity (thallium) in zone surrounding infarct core ([1]; 15 minutes after focal cerebral ischemia, zone surrounding core vs contralateral side)	differences in thallium distribution ipsilateral and contralateral to the occluded vessel ([1]; 7 days after focal cerebral ischemia (late time point))	thallium staining of astrocytes in the infarct core ([1]; hyperacute stage of cerebral ischemia, astrocytes)	thallium detection in neurons of the infarct core ([1]; hyperacute stage of cerebral ischemia, neurons)	toxicity of the thallium dose used (experimental animals)	retention in the brain (brain)
CCN(CC)C(=S)[S][201Tl] [Tl-DDC, thallium-201 diethyldithiocarbamate]	good cerebral uptake	decomposes spontaneously in the brain	clearly reduced staining intensity	clearly lower than in the undamaged contralateral side	less pronounced	intensively stained	cannot be detected		
CC(=O)[O-].[Tl+] [thallium acetate]								deadly	
technetium-99m-diethyldithiocarbamate [^99 mTc-DDC]	good cerebral uptake	essentially lower rate of decomposition in the brain							retained there to a lesser extent

Reference: US8911705B2, “Diagnostic substance and method for the analysis of metabolism processes in the brain” (Leibniz-Institut fuer Neurobiologie Stiftung des …, priority 2005, dated 2014)
